Drawing on US8742110B2, “Spiroxazolidinone compounds” (Merck Sharp & Dohme Corp., priority 2010, dated 2014), this text covers IC50 for 30 compounds.

Counter-ions that a name gives are not always drawn.

As usually defined, the IC50 is the concentration that gives 50% inhibition. The low end stands for higher potency, the high end for lower potency.

Chain of SSTR5 (P35346 whole entry): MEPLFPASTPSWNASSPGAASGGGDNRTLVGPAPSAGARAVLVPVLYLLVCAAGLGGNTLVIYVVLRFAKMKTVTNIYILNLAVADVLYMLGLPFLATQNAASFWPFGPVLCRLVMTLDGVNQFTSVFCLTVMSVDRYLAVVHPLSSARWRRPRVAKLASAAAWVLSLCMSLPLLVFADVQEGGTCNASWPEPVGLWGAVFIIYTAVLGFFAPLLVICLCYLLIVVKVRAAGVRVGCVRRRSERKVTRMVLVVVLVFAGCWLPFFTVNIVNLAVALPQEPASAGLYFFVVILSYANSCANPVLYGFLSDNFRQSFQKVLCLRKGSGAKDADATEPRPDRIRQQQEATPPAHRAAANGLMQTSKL

This assay concerns the target SSTR5 (Homo sapiens (Human), UniProt P35346). In words: SSTR5 binding assay. Particulars: CHO-K1 membranes expressing cloned human SSTR5. In a few lines:
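Competition binding on membranes from CHO-K1 cells stably expressing cloned human receptor, using radiolabeled somatostatin in 50 mM Tris-HCl pH 7.8 with EGTA, MgCl2 and protease inhibitors. Unlabeled compounds tested from 0.01 nM to 10,000 nM.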
The compound `CCCCn1nc(CN2CCC3(CC2)CN(c2ccc(C(=O)O)cc2)C(=O)O3)c2cc(F)ccc21` [Example 6-4, 4-{8-[(1-Butyl-5-fluoro-1H-indazol-3-yl)methyl]-2-oxo-1-oxa-3,8-diazaspiro[4.5]dec-3-yl}benzoic acid, TFA salt] had an IC50 of 98.7 nM. On to `CC(C)n1nc(CN2CCC3(CC2)CN(c2ccc(C(=O)O)cc2)C(=O)O3)c2cc(F)ccc21` [Example 6-5, 4-(8-{[5-Fluoro-1-(propan-2-yl)-1H-indazol-3-yl]methyl}-2-oxo-1-oxa-3,8-diazaspiro[4.5]dec-3-yl)benzoic acid, TFA salt], for which the IC50 was found to be 149 nM. As for `COc1ccc2c(CN3CCC4(CC3)CN(c3ccc(C(=O)O)cc3)C(=O)O4)nn(C(C)C)c2c1` [Example 6-6, 4-(8-{[6-Methoxy-1-(propan-2-yl)-1H-indazol-3-yl]methyl}-2-oxo-1-oxa-3,8-diazaspiro[4.5]dec-3-yl)benzoic acid, TFA salt], the IC50 worked out at 68.1 nM. Then `CCCn1nc(CN2CCC3(CC2)CN(c2ccc(C(=O)O)cc2)C(=O)O3)c2ccc(C#N)cc21` [Example 6-7, 4-{8-[(6-Cyano-1-propyl-1H-indazol-3-yl)methyl]-2-oxo-1-oxa-3,8-diazaspiro[4.5]dec-3-yl}benzoic acid, TFA salt], with 1200 nM; and `CC(C)n1nc(CN2CCC3(CC2)CN(c2ccc(C(=O)O)cc2)C(=O)O3)c2ccc(C(N)=O)cc21` [Example 6-8, 4-(8-{[6-Carbamoyl-1-(propan-2-yl)-1H-indazol-3-yl]methyl}-2-oxo-1-oxa-3,8-diazaspiro[4.5]dec-3-yl)benzoic acid, TFA salt], with 1200 nM. Turning to `CC(C)n1nc(CN2CCC3(CC2)CN(c2ccc(C(=O)O)cc2)C(=O)O3)c2ccc(C#N)cc21` [Example 6-9, 4-(8-{[6-Cyano-1-(propan-2-yl)-1H-indazol-3-yl]methyl}-2-oxo-1-oxa-3,8-diazaspiro[4.5]dec-3-yl)benzoic acid, TFA salt], the IC50 turned out to be 121 nM. Then `CC(C)(C)Cn1nc(CN2CCC3(CC2)CN(c2ccc(C(=O)O)cc2)C(=O)O3)c2cc(F)ccc21` [Example 6-10, 4-(8-{[1-(2,2-Dimethylpropyl)-5-fluoro-1H-indazol-3-yl]methyl}-2-oxo-1-oxa-3,8-diazaspiro[4.5]dec-3-yl)benzoic acid, TFA salt], with 137 nM; and `COc1ccc2c(CN3CCC4(CC3)CN(c3ccc(C(=O)O)cc3)C(=O)O4)nn(CC(C)(C)C)c2c1` [Example 6-11, 4-(8-{[1-(2,2-Dimethylpropyl)-6-methoxy-1H-indazol-3-yl]methyl}-2-oxo-1-oxa-3,8-diazaspiro[4.5]dec-3-yl)benzoic acid, TFA salt], with 410 nM. The result for `COc1ccc2c(CN3CCC4(CC3)CN(c3ccc(C(=O)O)cc3)C(=O)O4)nn(C3CC3)c2c1` [Example 6-12, 4-{8-[(1-Cyclopropyl-6-methoxy-1H-indazol-3-yl)methyl]-2-oxo-1-oxa-3,8-diazaspiro[4.5]dec-3-yl}benzoic acid, TFA salt] reads 216 nM. The result for `COc1ccc2c(CN3CCC4(CC3)CN(c3ccc(C(=O)O)cc3)C(=O)O4)nn(-c3ccccc3)c2c1` [Example 6-13, 4-{8-[(6-Methoxy-1-phenyl-1H-indazol-3-yl)methyl]-2-oxo-1-oxa-3,8-diazaspiro[4.5]dec-3-yl}benzoic acid, TFA salt] reads 185 nM; that for `CC(C)n1nc(CN2CCC3(CC2)CN(c2ccc(C(=O)O)cc2)C(=O)O3)c2cc(OCc3ccccc3)ccc21` [Example 6-14, 4-(8-{[5-(Benzyloxy)-1-(propan-2-yl)-1H-indazol-3-yl]methyl}-2-oxo-1-oxa-3,8-diazaspiro[4.5]dec-3-yl)benzoic acid, TFA salt], 0.26 nM. Take `COc1ccc2c(CN3CCC4(CC3)CN(c3ccc(C(=O)O)cc3)C(=O)O4)nn(CC(=O)C(C)(C)C)c2c1` [Example 6-15, 4-(8-{[1-(3,3-Dimethyl-2-oxobutyl)-6-methoxy-1H-indazol-3-yl]methyl}-2-oxo-1-oxa-3,8-diazaspiro[4.5]dec-3-yl)benzoic acid, TFA salt]: the IC50 was determined as 1200 nM. Then `COc1ccc2c(CN3CCC4(CC3)CN(c3ccc(C(=O)O)cc3)C(=O)O4)cn(C(C)C)c2c1` [Example 6-16, 4-(8-{[6-Methoxy-1-(propan-2-yl)-1H-indol-3-yl]methyl}-2-oxo-1-oxa-3,8-diazaspiro[4.5]dec-3-yl)benzoic acid, TFA salt], with 0.851 nM; and `CC(C)(C)n1nc(CN2CCC3(CC2)CN(c2ccc(C(=O)O)cc2)C(=O)O3)c2cc(Cl)c(F)cc21` [Example 6-17, 4-{8-[(1-tert-Butyl-5-chloro-6-fluoro-1H-indazol-3-yl)methyl]-2-oxo-1-oxa-3,8-diazaspiro[4.5]dec-3-yl}benzoic acid, TFA salt], with 61.6 nM. The result for `CC(C)n1cc(CN2CCC3(CC2)CN(c2ccc(C(=O)O)cc2)C(=O)O3)c2c(OCc3ccccc3)cccc21` [Example 6-18, 4-(8-{[4-(Benzyloxy)-1-(propan-2-yl)-1H-indol-3-yl]methyl}-2-oxo-1-oxa-3,8-diazaspiro[4.5]dec-3-yl)benzoic acid, TFA salt] reads 0.225 nM; that for `COc1ccc2c(CN3CCC4(CC3)CN(c3ccc(C(=O)O)cc3)C(=O)O4)cn(C)c2c1` [Example 6-19, 4-{8-[(6-Methoxy-1-methyl-1H-indol-3-yl)methyl]-2-oxo-1-oxa-3,8-diazaspiro[4.5]dec-3-yl}benzoic acid, TFA salt], 6.79 nM. As to `CCCn1cc(CN2CCC3(CC2)CN(c2ccc(C(=O)O)cc2)C(=O)O3)c2ccc(OC)cc21` [Example 6-20, 4-{8-[(6-Methoxy-1-propyl-1H-indol-3-yl)methyl]-2-oxo-1-oxa-3,8-diazaspiro[4.5]dec-3-yl}benzoic acid, TFA salt], the concentration for half-maximal inhibition (IC50) is 1.06 nM.

Regarding `CCCCn1cc(CN2CCC3(CC2)CN(c2ccc(C(=O)O)cc2)C(=O)O3)c2ccc(OC)cc21` [Example 6-21, 4-{8-[(6-Methoxy-1-butyl-1H-indol-3-yl)methyl]-2-oxo-1-oxa-3,8-diazaspiro[4.5]dec-3-yl}benzoic acid, TFA salt], the IC50 amounted to 11.7 nM. Then `COc1ccc2c(CN3CCC4(CC3)CN(c3ccc(C(=O)O)cc3)C(=O)O4)c[nH]c2c1` [Example 6-22, 4-{8-[(6-Methoxy-1H-indol-3-yl)methyl]-2-oxo-1-oxa-3,8-diazaspiro[4.5]dec-3-yl}benzoic acid, TFA salt], with 8.64 nM.

Consider `COc1ccc2c(CN3CCC4(CC3)CN(c3ccc(C(=O)O)cc3)C(=O)O4)cn(-c3ccccc3)c2c1` [Example 6-23, 4-{8-[(6-Methoxy-1-phenyl-1H-indol-3-yl)methyl]-2-oxo-1-oxa-3,8-diazaspiro[4.5]dec-3-yl}benzoic acid, TFA salt], for which the IC50 worked out at 9.06 nM.

Consider `CC(C)n1cc(CN2CCC3(CC2)CN(c2ccc(C(=O)O)cc2)C(=O)O3)c2cc(-c3ccc(F)c(F)c3F)ccc21` [Example 6-24, TFA salt], for which the IC50 worked out at 0.342 nM. With `CC(C)n1cc(CN2CCC3(CC2)CN(c2ccc(C(=O)O)cc2)C(=O)O3)c2cc(Br)ccc21` [Example 6-25, 4-(8-{[5-Bromo-1-(propan-2-yl)-1H-indol-3-yl]methyl}-2-oxo-1-oxa-3,8-diazaspiro[4.5]dec-3-yl)benzoic acid, TFA salt], the 50% inhibitory concentration (IC50) was 0.55 nM. Then `COc1ccc2c(c1)c(CN1CCC3(CC1)CN(c1ccc(C(=O)O)cc1)C(=O)O3)cn2C(C)C` [Example 6-26, 4-(8-{[5-Methoxy-1-(propan-2-yl)-1H-indol-3-yl]methyl}-2-oxo-1-oxa-3,8-diazaspiro[4.5]dec-3-yl)benzoic acid, TFA salt], with 1.45 nM; and `O=C(O)c1ccc(N2CC3(CCN(Cc4nc(-c5ccccc5)oc4-c4ccc(F)c(Cl)c4)CC3)OC2=O)cc1` [Example 6-27, 4-(8-{[5-(3-Chloro-4-fluorophenyl)-2-phenyl-1,3-oxazol-4-yl]methyl}-2-oxo-1-oxa-3,8-diazaspiro[4.5]dec-3-yl)benzoic acid, TFA salt], with 119 nM; and `COc1ccc(-c2nc(C3CCCCC3)sc2CN2CCC3(CC2)CN(c2ccc(C(=O)O)cc2)C(=O)O3)cc1` [Example 6-28, 4-(8-{[2-Cyclohexyl-4-(4-methoxyphenyl)-1,3-thiazol-5-yl]methyl}-2-oxo-1-oxa-3,8-diazaspiro[4.5]dec-3-yl)benzoic acid, TFA salt], with 1.34 nM. With `COc1ccc(-c2nc(C(C)(C)C)sc2CN2CCC3(CC2)CN(c2ccc(C(=O)O)cc2)C(=O)O3)cc1` [Example 6-29, 4-(8-{[2-tert-Butyl-4-(4-methoxyphenyl)-1,3-thiazol-5-yl]methyl}-2-oxo-1-oxa-3,8-diazaspiro[4.5]dec-3-yl)benzoic acid, TFA salt], the half-inhibitory concentration (IC50) came to 0.705 nM.

`O=C(O)c1ccc(N2CC3(CCN(Cc4nc(-c5ccccc5)oc4-c4cc(F)c(F)cc4F)CC3)OC2=O)cc1` [Example 6-30, 4-(2-Oxo-8-{[2-phenyl-5-(2,4,5-trifluorophenyl)-1,3-oxazol-4-yl]methyl}-1-oxa-3,8-diazaspiro[4.5]dec-3-yl)benzoic acid, TFA salt]: the concentration for half-maximal inhibition (IC50) amounted to 89.9 nM. Compound `O=C(O)c1ccc(N2CC3(CCN(Cc4nc(C5CC5)oc4-c4ccc(F)c(Cl)c4)CC3)OC2=O)cc1` [Example 6-31, 4-(8-{[5-(3-Chloro-4-fluorophenyl)-2-cyclopropyl-1,3-oxazol-4-yl]methyl}-2-oxo-1-oxa-3,8-diazaspiro[4.5]dec-3-yl)benzoic acid, TFA salt] returned an IC50 of 414 nM. The result for `O=C(O)c1ccc(N2CC3(CCN(Cc4sc(-c5ccccc5)nc4-c4ccccc4)CC3)OC2=O)cc1` [Example 6-32, 4-{8-[(2,4-Diphenyl-1,3-thiazol-5-yl)methyl]-2-oxo-1-oxa-3,8-diazaspiro[4.5]dec-3-yl}benzoic acid, TFA salt] reads 69.1 nM; that for `Cc1nc(-c2ccccc2)c(CN2CCC3(CC2)CN(c2ccc(C(=O)O)cc2)C(=O)O3)s1` [Example 6-33, 4-{8-[(2-Methyl-4-phenyl-1,3-thiazol-5-yl)methyl]-2-oxo-1-oxa-3,8-diazaspiro[4.5]dec-3-yl}benzoic acid, TFA salt], 153 nM.
